These results are taken from patent publication US8101594B2, “Method for improving pancreatic functions” (Morinaga Milk Industry Co., Ltd., priority 2005, dated 2012).

The subject of experiment [1] is db/db mice. Briefly: Pancreatic tissue protecting action: number and maximum area of Langerhans islets in pancreatic sections of db/db mice. The note with it: for Maximum area of Langerhans islets on administration × 10^3 / The numbers of Langerhans islets in sections on 43rd day of administration: 1 μg/animal orally once a day for 42 days; for Maximum area of Langerhans islets on administration × 10^3: negative sample 44.5 ± 17.7; for The numbers of Langerhans islets in sections on 43rd day of administration: pancreatic sections of 3 positions, HE staining, negative sample 40.3 ± 9.7; for Action of protecting pancreatic tissues, especially endocrine cells: 42 days oral. The class given is in vivo. The text has this:
In this test, the pancreatic tissue protecting action of compounds having a lophenol skeleton was examined by using db/db mice known as a model animal of pancreatic hypofunction or pancreatic tissue dysfunction.
4-methyl-cholest-7-en-3-ol produced in Preparation Example mentioned above was used as test sample 1, 4-methyl-ergost-7-en-3-ol was used as test sample 2, 4-methyl-stigmast-7-en-3-ol was used as test samples 3. Further, β-sitosterol (Tama Biochemical Co., Ltd.) was used as a control sample.
In this test, 6-week old male db/db mice (purchased from Clea Japan, Inc.) were used. These mice were divided into groups, each consisting of 7 animals. Each test sample was dissolved in DMSO, and the concentration was adjusted to 1 μg/mL with physiological saline. The final DMSO concentration was adjusted to 0.2%. The model mice were orally administered with 1 mL of the test sample once a day everyday for 42 days with a sonde. On the 43rd day of the continuous administration, the pancreas was extracted, divided into three portions of upstream, midstream and downstream from the duodenum side, and fixed with a formalin solution, and then paraffin blocks were prepared in a conventional manner. Section slides were prepared from the paraffin blocks, and subjected to hematoxylin-eosin staining. The numbers of Langerhans islets existing on the sections of the 3 position of the pancreas, and area of Langerhans islet having the maximum area on each section were measured by using an ocular micrometer on a microscope (“ECLIPSE E600”, NIKON CORP.).

Experiment [2] concerns db/db mice. Briefly: Serum insulin level (insulin production ability protecting action) in db/db mice after 42 days of oral administration. The following applies: for Serum insulin levels on 43rd day of administration: male db/db mice, ELISA, negative sample 1.99 ± 0.66; for Pancreatic function (insulin production ability) protecting effect: 0.1 μg/animal; for Pancreatic function (insulin production ability) protecting effect / Serum insulin level as % of that observed in the negative test: 43rd day of continuous administration, db/db mice; for Serum insulin level as % of that observed in the negative test: 1 μg/animal. The class given is in vivo. The protocol:
In this test, the endocrine gland cell functions (insulin production ability) protecting action of compounds having a lophenol skeleton was evaluated by using db/db mice known as a model animal of pancreatic hypofunction or pancreatic tissue dysfunction.
4-methyl-cholest-7-en-3-ol produced in Preparation Example mentioned above was used as test sample 1, 4-methyl-ergost-7-en-3-ol was used as test sample 2, and 4-methyl-stigmast-7-en-3-ol was used as test samples 3.
In this test, 6-week old male db/db mice (purchased from Clea Japan, Inc.) were used. These mice were divided into groups, each consisting of 7 animals. Each test sample was dissolved in DMSO, and the concentration was adjusted to 0.1 or 1 μg/mL with physiological saline. The final DMSO concentration was adjusted to 0.2%. The pancreas dysfunction model mice were orally administered with 1 mL of the test sample once a day everyday for 42 days with a sonde. The serum insulin level was measured on the 43rd day of the continuous administration by using Lbis insulin mouse ELISA kit (Shibayagi Co., Ltd).

[3] abbreviates: 0.1 μg/animal orally once a day for 42 days.
Where [4] appears, read: 1 μg/animal orally once a day for 42 days.

Turning to `CC[C@H](CC[C@@H](C)[C@H]1CC[C@H]2[C@@H]3CC=C4C[C@@H](O)CC[C@]4(C)[C@H]3CC[C@]12C)C(C)C` [Control sample, β-sitosterol, reference compound], the “Maximum area of Langerhans islets on administration × 10^3” value (“Maximum area … on administration × 10^3” for short) in experiment [1] (43rd day) was 69.1 ± 40.6 × 10^3 μm^2. Moreover, the “The numbers of Langerhans islets in sections on 43rd day of administration” value (from here on “The numbers of Langerhans islets”) in experiment [1] turned out to be 42.3 ± 20.1 piece. The “Pancreatic function protecting effect” value in experiment [1] (1 μg/animal, 43rd day) is “any pancreatic function protecting effect was not observed”. Also, in experiment [1] (1 μg/animal, 43rd day, versus negative sample), the “Change of numbers and maximum areas of Langerhans islets” value is listed as “don't show any significant change”.
With `CC(C)C(C)CCC(C)C1CCC2C3=CCC4C(C)C(O)CCC4(C)C3CCC21C` (stereo not shown) [Test sample 2, 4-methyl-ergost-7-en-3-ol], the “Serum insulin levels on 43rd day of administration” value (from here on “Serum insulin levels on 43rd day”) in experiment [2] (setting [3]) is recorded as 2.32 ± 1.52 ng/mL. In experiment [2], the “Pancreatic function (insulin production ability) protecting effect” value is listed as “any significant pancreatic function protecting effect was not observed” and the “Serum insulin level as % of that observed in the negative test” value (“Serum insulin level as %” below) turned out to be 210%. For the same compound, the “Serum insulin levels on 43rd day” value in experiment [2] (setting [4]) was 4.17 ± 2.23 ng/mL. Moreover, the “Maximum area … on administration × 10^3” value in experiment [1] (43rd day) is 178.7 ± 143.4 × 10^3 μm^2. Further, the “The numbers of Langerhans islets” value in experiment [1] is reported as 64.1 ± 9.1 piece. Besides, in experiment [1] (1 μg/animal, 43rd day), the “Maximum area of Langerhans islets, times as large as that observed in the negative test” value (“Maximum area of Langerhans islets, times” below) was 4 times and the “Number of Langerhans islets as % of the number in the negative sample-administered mice” value is given as 159%. In addition, the “Action of protecting pancreatic tissues, especially endocrine cells” value (from here on “Action of protecting pancreatic tissues”) in experiment [1] (1 μg/animal) is “had an action of protecting pancreatic tissues”.
In the case of `CC(C)CCCC(C)C1CCC2C3=CCC4C(C)C(O)CCC4(C)C3CCC21C` (stereo not shown) [Test sample 1, 4-methyl-cholest-7-en-3-ol], in experiment [2] (setting [3]), the “Serum insulin levels on 43rd day” value is 2.33 ± 1.23 ng/mL. In experiment [2], the “Pancreatic function (insulin production ability) protecting effect” value was “any significant pancreatic function protecting effect was not observed” and the “Serum insulin level as %” value is on record as 184%. In experiment [2] (setting [4]), the “Serum insulin levels on 43rd day” value turned out to be 3.67 ± 0.80 ng/mL. Besides, the “Maximum area … on administration × 10^3” value in experiment [1] (43rd day) is 160.0 ± 116.0 × 10^3 μm^2. The “The numbers of Langerhans islets” value in experiment [1] was determined as 75.7 ± 24.7 piece. Besides, in experiment [1] (1 μg/animal, 43rd day), the “Maximum area of Langerhans islets, times” value turned out to be 3.6 times and the “Number of Langerhans islets as % of the number in the negative sample-administered mice” value was determined as 188%. For the same compound, the “Action of protecting pancreatic tissues” value in experiment [1] (1 μg/animal) is listed as “had an action of protecting pancreatic tissues”.
In the case of `CCC(CCC(C)C1CCC2C3=CCC4C(C)C(O)CCC4(C)C3CCC21C)C(C)C` (stereo not shown) [Test sample 3, 4-methyl-stigmast-7-en-3-ol], the “Serum insulin levels on 43rd day” value in experiment [2] (setting [3]) worked out at 2.23 ± 0.68 ng/mL. Moreover, in experiment [2], the “Pancreatic function (insulin production ability) protecting effect” value is recorded as “any significant pancreatic function protecting effect was not observed” and the “Serum insulin level as %” value stood at 211%. Also, in experiment [2] (setting [4]), the “Serum insulin levels on 43rd day” value is reported as 4.20 ± 1.86 ng/mL. The “Maximum area … on administration × 10^3” value in experiment [1] (43rd day) is listed as 122.6 ± 51.4 × 10^3 μm^2. In addition, in experiment [1], the “The numbers of Langerhans islets” value was 60.4 ± 11.6 piece. For the same compound, in experiment [1] (1 μg/animal, 43rd day), the “Maximum area of Langerhans islets, times” value was found to be 2.8 times and the “Number of Langerhans islets as % of the number in the negative sample-administered mice” value is reported as 150%. The “Action of protecting pancreatic tissues” value in experiment [1] (1 μg/animal) is given as “had an action of protecting pancreatic tissues”.
